{"source": "paper PMC6842095", "about": "(Neuropharmacology, 2019)", "key": {"α4 GREFP β2 AChR [1]": {"molecular_target": "T1, α4 GREFP β2 AChR (Homo sapiens, UniProt P17787+P43681, I229P/K186G/K222F/T220E/Y218R)", "T1 sequence (P43681 29-627 K186G/Y218R/T220E/K222F/I229P)": "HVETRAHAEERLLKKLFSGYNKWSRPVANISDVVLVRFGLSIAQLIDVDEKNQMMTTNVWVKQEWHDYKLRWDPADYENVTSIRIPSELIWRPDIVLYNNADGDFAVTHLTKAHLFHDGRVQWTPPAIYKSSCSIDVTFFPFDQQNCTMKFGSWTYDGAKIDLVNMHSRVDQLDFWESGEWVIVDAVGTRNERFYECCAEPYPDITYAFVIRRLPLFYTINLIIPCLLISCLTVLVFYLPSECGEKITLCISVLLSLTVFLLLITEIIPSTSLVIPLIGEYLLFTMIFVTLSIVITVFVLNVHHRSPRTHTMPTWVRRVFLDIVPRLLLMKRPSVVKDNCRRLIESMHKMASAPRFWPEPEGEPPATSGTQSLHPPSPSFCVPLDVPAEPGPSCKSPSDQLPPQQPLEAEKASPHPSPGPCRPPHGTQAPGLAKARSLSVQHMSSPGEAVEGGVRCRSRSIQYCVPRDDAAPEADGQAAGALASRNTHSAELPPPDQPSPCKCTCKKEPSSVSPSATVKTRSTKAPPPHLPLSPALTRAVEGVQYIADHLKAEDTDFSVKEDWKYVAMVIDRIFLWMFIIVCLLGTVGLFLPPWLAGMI", "T1 sequence (P17787 26-502, stated change not applied)": "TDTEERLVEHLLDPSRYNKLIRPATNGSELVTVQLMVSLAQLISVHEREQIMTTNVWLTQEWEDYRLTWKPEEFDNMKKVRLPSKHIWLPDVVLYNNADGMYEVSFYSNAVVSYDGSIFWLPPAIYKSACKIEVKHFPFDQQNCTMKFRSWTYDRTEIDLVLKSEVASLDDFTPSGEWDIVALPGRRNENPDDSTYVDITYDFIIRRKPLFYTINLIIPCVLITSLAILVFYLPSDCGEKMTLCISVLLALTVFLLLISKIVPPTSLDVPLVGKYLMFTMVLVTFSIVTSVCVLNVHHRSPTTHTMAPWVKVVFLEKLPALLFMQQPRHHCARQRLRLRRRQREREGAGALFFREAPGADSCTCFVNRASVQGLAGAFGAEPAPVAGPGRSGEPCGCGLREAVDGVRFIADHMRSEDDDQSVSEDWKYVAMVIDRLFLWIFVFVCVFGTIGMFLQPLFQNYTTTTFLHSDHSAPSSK", "format": "binding"}, "α4 GREFP β4 AChR [2]": {"molecular_target": "T2, α4 GREFP β4 AChR (Homo sapiens, UniProt P30926+P43681, I229P/K186G/K222F/T220E/Y218R)", "T2 sequence (P30926 22-498)": "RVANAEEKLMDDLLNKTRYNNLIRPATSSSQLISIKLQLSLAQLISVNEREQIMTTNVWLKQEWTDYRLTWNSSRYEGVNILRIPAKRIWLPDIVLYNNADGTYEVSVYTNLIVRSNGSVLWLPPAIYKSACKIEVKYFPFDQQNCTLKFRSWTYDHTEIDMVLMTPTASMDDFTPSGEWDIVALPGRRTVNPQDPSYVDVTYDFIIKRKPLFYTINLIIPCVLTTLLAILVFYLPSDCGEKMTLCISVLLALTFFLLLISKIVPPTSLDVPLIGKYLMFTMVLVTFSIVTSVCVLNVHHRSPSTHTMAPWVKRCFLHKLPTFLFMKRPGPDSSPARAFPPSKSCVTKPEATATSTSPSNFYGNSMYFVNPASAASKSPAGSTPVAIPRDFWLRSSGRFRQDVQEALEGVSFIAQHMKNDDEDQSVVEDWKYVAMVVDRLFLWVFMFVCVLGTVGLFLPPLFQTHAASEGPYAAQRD", "T2 sequence (P43681 29-627 K186G/Y218R/T220E/K222F/I229P)": "as the sequence (P43681 29-627 K186G/Y218R/T220E/K222F/I229P) above"}, "α3 GFEP β4 AChR [3]": {"molecular_target": "T3, α3 GFEP β4 AChR (Homo sapiens, UniProt P30926+P32297, I227P/K184G/K220F/N222E)", "T3 sequence (P32297 32-505 K184G/K220F/N222E/I227P)": "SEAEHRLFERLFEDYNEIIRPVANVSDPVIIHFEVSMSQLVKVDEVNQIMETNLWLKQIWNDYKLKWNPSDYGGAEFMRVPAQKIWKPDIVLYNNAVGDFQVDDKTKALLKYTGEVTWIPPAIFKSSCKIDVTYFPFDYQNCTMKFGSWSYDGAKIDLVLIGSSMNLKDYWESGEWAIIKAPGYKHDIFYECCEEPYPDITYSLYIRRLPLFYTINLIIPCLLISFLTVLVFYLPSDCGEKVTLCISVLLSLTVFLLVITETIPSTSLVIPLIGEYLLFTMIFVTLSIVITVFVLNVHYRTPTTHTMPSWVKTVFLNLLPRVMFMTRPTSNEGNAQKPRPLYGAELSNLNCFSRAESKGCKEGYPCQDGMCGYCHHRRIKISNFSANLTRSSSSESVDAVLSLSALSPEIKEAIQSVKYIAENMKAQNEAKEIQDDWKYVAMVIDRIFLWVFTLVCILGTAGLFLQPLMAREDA", "T3 sequence (P30926 22-498, stated change not applied)": "as the sequence (P30926 22-498) above"}, "α2 GFEP β4 AChR [4]": {"molecular_target": "T4, α2 GFEP β4 AChR (Homo sapiens, UniProt P30926+Q15822, D246E/I251P/K208G/K244F)", "T4 sequence (P30926 22-498, stated change not applied)": "as the sequence (P30926 22-498) above", "T4 sequence (Q15822 27-529 K208G/K244F/D246E/I251P)": "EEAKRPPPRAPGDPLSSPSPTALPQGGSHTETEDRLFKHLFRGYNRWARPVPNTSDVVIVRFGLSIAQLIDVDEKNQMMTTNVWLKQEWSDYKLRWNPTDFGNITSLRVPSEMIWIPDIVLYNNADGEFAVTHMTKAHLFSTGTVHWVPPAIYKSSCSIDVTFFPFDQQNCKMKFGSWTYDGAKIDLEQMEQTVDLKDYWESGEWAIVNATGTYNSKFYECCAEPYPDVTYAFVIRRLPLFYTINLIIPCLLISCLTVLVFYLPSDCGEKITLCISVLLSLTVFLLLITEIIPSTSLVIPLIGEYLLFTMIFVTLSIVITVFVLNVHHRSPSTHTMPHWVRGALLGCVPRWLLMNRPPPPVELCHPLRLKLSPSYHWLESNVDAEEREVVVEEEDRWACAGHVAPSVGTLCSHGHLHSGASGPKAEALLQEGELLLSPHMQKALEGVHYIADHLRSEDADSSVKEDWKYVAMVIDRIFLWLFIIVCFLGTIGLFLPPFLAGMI"}, "α2 GFEP β4 AChR [5]": {"molecular_target": "T4, α2 GFEP β4 AChR", "assay": "cell-based"}, "α4 GREFP β2 AChR [6]": {"molecular_target": "T1, α4 GREFP β2 AChR", "assay": "Time course of ^125I-α-BTX dissociation", "format": "binding"}, "α4 GREFP β4 AChR [7]": {"molecular_target": "T2, α4 GREFP β4 AChR", "assay": "Time course of ^125I-α-BTX dissociation", "format": "binding"}, "α3 GFEP β4 AChR [8]": {"molecular_target": "T3, α3 GFEP β4 AChR", "assay": "Time course of ^125I-α-BTX dissociation", "format": "binding"}, "α2 GFEP β2 AChR": {"molecular_target": "α2 GFEP β2 AChR (Homo sapiens, UniProt P17787+Q15822, D246E/I251P/K208G/K244F)", "sequence (P17787 26-502 limits assumed, stated change not applied)": "as the sequence (P17787 26-502, stated change not applied) above", "sequence (Q15822 27-529 K208G/K244F/D246E/I251P limits assumed, stated change not applied)": "as the sequence (Q15822 27-529 K208G/K244F/D246E/I251P) above", "format": "binding"}, "α2 GFEP β4 AChR [9]": {"molecular_target": "T4, α2 GFEP β4 AChR", "assay": "Time course of ^125I-α-BTX dissociation", "format": "binding"}, "[10]": {"molecular_target": "muscle AChR (α1, β, ε, δ) (Homo sapiens, UniProt P02708+Q04844+Q07001)", "sequence (P02708 21-457 limits assumed)": "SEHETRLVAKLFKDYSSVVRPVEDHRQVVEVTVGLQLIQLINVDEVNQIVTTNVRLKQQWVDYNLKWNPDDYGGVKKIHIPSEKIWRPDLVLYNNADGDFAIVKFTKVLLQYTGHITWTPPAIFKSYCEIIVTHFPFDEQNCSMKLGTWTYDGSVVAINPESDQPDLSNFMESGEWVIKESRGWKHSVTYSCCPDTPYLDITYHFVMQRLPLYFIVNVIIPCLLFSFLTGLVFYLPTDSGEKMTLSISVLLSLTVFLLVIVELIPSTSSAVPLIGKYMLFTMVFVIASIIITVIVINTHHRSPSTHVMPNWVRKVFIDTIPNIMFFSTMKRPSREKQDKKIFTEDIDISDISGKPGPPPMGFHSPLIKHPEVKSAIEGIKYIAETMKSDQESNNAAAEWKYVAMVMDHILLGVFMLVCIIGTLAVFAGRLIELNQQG", "sequence (Q04844 21-493 limits assumed)": "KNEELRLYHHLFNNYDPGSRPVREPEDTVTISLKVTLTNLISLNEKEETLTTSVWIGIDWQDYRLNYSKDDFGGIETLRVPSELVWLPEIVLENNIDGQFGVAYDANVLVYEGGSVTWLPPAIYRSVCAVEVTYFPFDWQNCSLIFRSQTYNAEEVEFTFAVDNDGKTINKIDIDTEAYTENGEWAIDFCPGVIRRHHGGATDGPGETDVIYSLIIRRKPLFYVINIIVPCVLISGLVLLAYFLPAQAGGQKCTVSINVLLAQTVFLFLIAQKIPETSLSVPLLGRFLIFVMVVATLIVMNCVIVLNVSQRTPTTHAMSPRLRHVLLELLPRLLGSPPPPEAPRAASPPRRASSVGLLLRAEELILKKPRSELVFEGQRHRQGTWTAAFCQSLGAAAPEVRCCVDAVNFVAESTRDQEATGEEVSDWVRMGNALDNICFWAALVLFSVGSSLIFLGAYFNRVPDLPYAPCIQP", "sequence (Q07001 22-517 limits assumed)": "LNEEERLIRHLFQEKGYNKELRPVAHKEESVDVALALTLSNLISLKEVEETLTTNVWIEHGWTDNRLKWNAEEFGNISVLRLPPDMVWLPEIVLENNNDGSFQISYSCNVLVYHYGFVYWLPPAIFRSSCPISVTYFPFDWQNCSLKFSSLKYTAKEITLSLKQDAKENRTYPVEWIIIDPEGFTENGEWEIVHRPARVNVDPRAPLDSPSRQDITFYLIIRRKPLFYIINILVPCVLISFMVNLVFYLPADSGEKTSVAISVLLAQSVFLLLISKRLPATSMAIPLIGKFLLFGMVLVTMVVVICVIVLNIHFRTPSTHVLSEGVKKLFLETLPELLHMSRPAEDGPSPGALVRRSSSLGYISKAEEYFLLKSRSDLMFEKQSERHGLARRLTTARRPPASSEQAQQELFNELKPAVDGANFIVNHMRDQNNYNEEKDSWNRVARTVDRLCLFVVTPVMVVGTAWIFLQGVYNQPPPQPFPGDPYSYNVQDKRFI", "format": "binding"}, "α7 AChR": {"molecular_target": "α7 AChR (Homo sapiens, UniProt P36544)", "sequence (P36544 23-502 limits assumed)": "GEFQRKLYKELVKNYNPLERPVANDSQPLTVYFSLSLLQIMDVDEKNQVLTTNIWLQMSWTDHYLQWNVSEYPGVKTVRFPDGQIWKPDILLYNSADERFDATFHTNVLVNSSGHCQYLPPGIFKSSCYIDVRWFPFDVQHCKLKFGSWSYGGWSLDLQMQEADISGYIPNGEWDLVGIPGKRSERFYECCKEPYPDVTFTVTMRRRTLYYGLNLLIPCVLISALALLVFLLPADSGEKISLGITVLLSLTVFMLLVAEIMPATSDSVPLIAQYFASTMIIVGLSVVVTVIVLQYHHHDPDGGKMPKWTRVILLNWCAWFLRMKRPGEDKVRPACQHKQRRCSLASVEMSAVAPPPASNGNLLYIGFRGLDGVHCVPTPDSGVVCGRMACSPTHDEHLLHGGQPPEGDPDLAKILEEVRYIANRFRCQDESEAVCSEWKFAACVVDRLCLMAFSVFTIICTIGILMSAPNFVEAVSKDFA", "format": "binding"}, "wild type α4β2 AChR": {"molecular_target": "wild type α4β2 AChR (Homo sapiens, UniProt P17787+P43681)", "format": "binding"}}, "note": "pKd: −log10 of the molar value. Values joined by “and” are separate entries in the source; they are usually repeats but may differ in a detail not shown here. Equal entries are not always repeated. Where two headings read alike, the source gives them in different places."}
{"compound": "Clc1ccc(C2CC3CCC2N3)cn1", "note": "(racemic) [Epibatidine, (±) epibatidine]", "values": [{"measurement": "nH (Hill coefficient)", "setting": "α4 GREFP β2 AChR [1]; α4 GREFP + β2, ± S.E.", "value": "1.3 ± 0.1"}]}
{"compound": "CC(=O)OCC[N+](C)(C)C", "note": "[ACh, Acetylcholine]", "values": [{"measurement": "nH (Hill coefficient)", "setting": "α4 GREFP β2 AChR [1]", "value": "0.81 ± 0.07"}]}
{"compound": "CN1CCC[C@H]1c1cccnc1", "note": "[Nicotine, (−)nicotine]", "values": [{"measurement": "nH (Hill coefficient)", "setting": "α4 GREFP β2 AChR [1]", "value": "1.4 ± 0.1"}, {"measurement": "nH (Hill coefficient)", "setting": "α4 GREFP β4 AChR [2]", "value": "0.80 ± 0.1"}, {"measurement": "nH (Hill coefficient)", "setting": "α3 GFEP β4 AChR [3]", "value": "0.75 ± 0.1"}, {"measurement": "nH (Hill coefficient)", "setting": "α2 GFEP β4 AChR [4]", "value": "0.96 ± 0.1"}, {"measurement": "pKd", "setting": "α2 GFEP β4 AChR [5]", "value": 6.68}]}
{"compound": "α-bungarotoxin [α-BTX]", "values": [{"measurement": "Half-life", "setting": "α4 GREFP β2 AChR [6]", "value": 12.6, "unit": "h"}, {"measurement": "dissociation constant from ratio of dissociation to association rate constants", "setting": "α4 GREFP β2 AChR [6]", "value": 0.3, "unit": "nM"}, {"measurement": "kdissoc", "setting": "α4 GREFP β2 AChR [6]", "value": "1.5 × 10^−5 s^−1 and 1.5 ± 0.2 × 10^−5 s^−1"}, {"measurement": "Half-life", "setting": "α4 GREFP β4 AChR [7]", "value": 19, "unit": "h"}, {"measurement": "kdissoc", "setting": "α4 GREFP β4 AChR [7]", "value": "1.0 ± 0.1 × 10^−5 s^−1"}, {"measurement": "Half-life", "setting": "α3 GFEP β4 AChR [8]", "value": 77, "unit": "h"}, {"measurement": "kdissoc", "setting": "α3 GFEP β4 AChR [8]", "value": "2.5 ± 0.9 × 10^−6 s^−1"}, {"measurement": "Half-life", "setting": "α2 GFEP β2 AChR", "value": 6.0, "unit": "h"}, {"measurement": "kdissoc", "setting": "α2 GFEP β2 AChR", "value": "3.2 ± 0.3 × 10^−5 s^−1"}, {"measurement": "Half-life", "setting": "α2 GFEP β4 AChR [9]", "value": 9.6, "unit": "h"}, {"measurement": "kdissoc", "setting": "α2 GFEP β4 AChR [9]", "value": "2.0 ± 0.3 × 10^−5 s^−1"}, {"measurement": "Half-life", "setting": "[10]", "value": 5.4, "unit": "h"}, {"measurement": "kdissoc", "setting": "[10]", "value": "3.5 ± 0.4 × 10^−5 s^−1"}, {"measurement": "Half-life", "setting": "α7 AChR", "value": 133, "unit": "h"}, {"measurement": "kdissoc", "setting": "α7 AChR", "value": "1.5 ± 0.3 × 10^−6 s^−1"}, {"measurement": "affinity for the toxin (ratio of total to nonspecific binding close to one)", "setting": "wild type α4β2 AChR", "value": "negligible affinity"}]}
